Data published in patent US5939437A, “CCK and gastrin receptor ligands” (James Black Foundation Limited, priority 1994, dated 1999).

How the values were obtained:
CCKB = target: T1, CCKB (Mus musculus, UniProt P56481); assay: radioligand binding assay at the CCKB (CCK8 [sic]) receptor in mouse cortical membranes; settings: [125I]-CCK8S 200 pM, 150 min at 21±3° C.; for Ki: read-out: CCKB pKi (converted)
T1 construct: The cortex was dissected, weighed and homogenised in 40 ml ice-cold buffer; from tissue; host or cells: cerebral cortex membranes of male CD1 mice (Charles River)
T1 sequence (P56481 1-453): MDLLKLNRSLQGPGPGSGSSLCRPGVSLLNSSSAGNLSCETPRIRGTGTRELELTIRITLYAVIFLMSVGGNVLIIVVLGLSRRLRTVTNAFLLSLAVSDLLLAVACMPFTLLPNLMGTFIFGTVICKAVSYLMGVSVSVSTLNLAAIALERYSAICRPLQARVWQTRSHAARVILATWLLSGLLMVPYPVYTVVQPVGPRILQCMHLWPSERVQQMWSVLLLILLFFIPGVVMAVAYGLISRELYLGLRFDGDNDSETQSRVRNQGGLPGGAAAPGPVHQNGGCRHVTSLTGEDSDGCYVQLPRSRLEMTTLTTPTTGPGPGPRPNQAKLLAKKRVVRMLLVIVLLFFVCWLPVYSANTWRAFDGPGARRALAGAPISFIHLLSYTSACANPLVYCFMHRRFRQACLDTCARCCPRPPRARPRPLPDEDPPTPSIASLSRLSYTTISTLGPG
Procedure: The compounds of the examples were tested for binding at the CCK8 receptor in mouse cortical membranes by means of a radioligand binding assay. The procedure was as follows: The whole brains from male mice (CD1 22-25 g; Charles River) were removed and placed in ice-cold buffer (pH7.2@21±3° C.) of the following composition (mM); 10 HEPES, 130 NaCl, 4.7 KCl, 5 MgCl2, 1 EDTA and containing 0.25 g.1^-1 bacitracin. The cortex was dissected, weighed and homogenised in 40 ml ice-cold buffer using a Teflon-in-glass homogeniser. The homogenate was centrifuged at 39,800 g for 20 min at 4° C., the supernatant discarded and the pellet resuspended by homogenisation in fresh buffer. The homogenate was recentrifuged (39,800 g; 20 min@4° C.) and the final pellet was resuspended in HEPES buffer to give a tissue concentration of 2 mg.ml^-1 (original wet weight). The membranes ([…]) were incubated for 150 min at 21±3° C. in a final volume of 0.5 ml with HEPES buffer containing [^25 I]-CCK8S (0.05 ml; 200 pM NEN 2200 Ci.mmol^-1) and competing compound. Total and non-specific binding of [^125 I]-CCK8S were defined using 0.05 ml of buffer and 0.05 ml of […] L-365,260, respectively. The assay was terminated by rapid filtration through pre-soaked Whatman GF/B 35 filters using a Brandell Cell harvester. The filters were washed (3×3 ml) with ice-cold 5 mM Tris-HCl (pH7.4@4° C.) and bound radioactivity determined by counting (1 min.) in a gamma-counter.

CCKA = target: T2, CCKA (Cavia porcellus, UniProt Q63931); assay: CCKA binding assay (guinea-pig pancreas membranes); settings: [125I]-CCK8(S) 200 pM, 0.375 μM PD134,308 present, 150 minutes at 21±3° C.; for Ki: read-out: CCKA pKi (converted)
T2 construct: The pancreatata were homogenised in 40 ml ice-cold HEPES buffer; from tissue; host or cells: pancreas membranes of male Dunkin Hartley guinea-pigs
T2 sequence (Q63931 1-430): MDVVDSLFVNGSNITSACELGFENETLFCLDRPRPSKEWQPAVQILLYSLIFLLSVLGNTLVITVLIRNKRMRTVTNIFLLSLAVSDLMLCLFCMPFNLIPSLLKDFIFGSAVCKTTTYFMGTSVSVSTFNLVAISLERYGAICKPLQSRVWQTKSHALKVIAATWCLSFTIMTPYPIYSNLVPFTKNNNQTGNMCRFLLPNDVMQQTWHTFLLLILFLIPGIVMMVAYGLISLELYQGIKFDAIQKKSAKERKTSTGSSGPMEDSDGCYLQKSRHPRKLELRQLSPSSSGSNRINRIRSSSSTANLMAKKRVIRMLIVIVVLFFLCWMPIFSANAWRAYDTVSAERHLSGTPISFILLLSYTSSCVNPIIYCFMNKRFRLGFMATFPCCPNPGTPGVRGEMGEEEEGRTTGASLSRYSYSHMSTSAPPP
Procedure: The compounds of the examples were also tested in a CCKA binding assay as follows:
The pancreatata were removed from male guinea-pigs (200-300 g; Dunkin Hartley) and placed in ice-cold HEPES buffer (pH 7.2@21 ±3° C.). The pancreatata were homogenised in 40 ml ice-cold HEPES buffer using a polytron (Brinkman, PT10, setting 10) 4×1 second. The homogenate was centrifuged at 39,800 g for 15 min at 4° C. The supernatant was discarded and the pellet re-suspended using a Teflon-in-glass homogeniser in 20 volumes of fresh buffer and re-centrifuged as above. The final pellet was re-suspended using a Teflon-in-glass homogeniser to a tissue concentration of 1 mg.ml^-1 (original wet weight), and filtered through 500 μm pore-size Nytex mesh.
The membranes (400 μl; containing 0.375 μM PD134,308) are incubated for 150 minutes at 21±3° C. in a final volume of 0.5 ml with HEPES buffer containing [^125 I]-CCK8 (S) (50 μl; 200 pM) and competing compound. Total and non-specific binding of [^125 I]-CCK^8 (S) are defined using 50 μl of buffer and 50 μl of 100 nM L-364,718respectively. The assay is terminated by rapid filtration through pre-soaked Whatman GF/B filters using a Brandell Cell Harvester. The filters were washed (3×3 ml) with ice-cold 50 mM Tris HCl (pH 7.4 at 4° C. and bound radioactivity is determined by counting (1 min) in a gamma counter.

Gastrin = target: T3, Gastrin (Rattus norvegicus, UniProt P30553); assay: gastrin antagonist activity in an immature rat stomach assay (pentagastrin-stimulated acid secretion, isolated stomach); settings: cumulative pentagastrin dose-response curves, 60 min after drug; for Kb: read-out: Gastrin pKB (converted)
T3 construct: The stomach was excised and flushed with ca. 1 ml unbuffered physiological saline solution; from tissue; host or cells: isolated whole stomach of immature rats (33-50 g, ca. 21 days old)
T3 sequence (P30553 1-452): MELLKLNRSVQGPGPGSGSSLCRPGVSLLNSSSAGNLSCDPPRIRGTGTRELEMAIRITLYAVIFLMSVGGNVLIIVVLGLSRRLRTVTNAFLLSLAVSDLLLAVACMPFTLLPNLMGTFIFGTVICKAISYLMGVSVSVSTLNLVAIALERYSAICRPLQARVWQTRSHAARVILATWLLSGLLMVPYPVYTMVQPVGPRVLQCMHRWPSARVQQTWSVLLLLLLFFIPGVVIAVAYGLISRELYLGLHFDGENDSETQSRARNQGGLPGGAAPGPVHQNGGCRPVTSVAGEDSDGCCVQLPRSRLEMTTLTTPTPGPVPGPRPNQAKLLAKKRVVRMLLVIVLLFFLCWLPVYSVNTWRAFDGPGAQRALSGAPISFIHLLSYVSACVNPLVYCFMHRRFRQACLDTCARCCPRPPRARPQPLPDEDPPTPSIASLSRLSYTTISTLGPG
Procedure: The compounds of the examples were also tested for gastrin antagonist activity in an immature rat stomach assay. The procedure was follows:
The oesophagus of immature rats (33-50 g, ca. 21 days old) was ligated at the level of the cardiac sphincter and the duodenal sphincter was cannulated. The stomach was excised and flushed with ca. 1 ml unbuffered physiological saline solution. The fundus was punctured and cannulated. A further 4-5 ml of unbuffered solution was flushed through the stomach to ensure the preparation was not leaking. The stomach was lowered into a jacketed organ bath containing 40 ml of buffered solution containing 3×10^-8 M5methylfurmethide, maintained at 37° and gassed vigorously with 95% O2 /5% CO2. The stomach was continuously perfused at a rate of 1 ml min^-1 with unbuffered solution gassed with 100% O2 with the perfusate passing over an internally referenced pH-electrode fixed 12 cm above the stomach.
After 120 min of stabilisation the drugs were added directly to the serosal solution in the organ bath and after a further 60 min cumulative pentagastrin dose-response curves were started. Changes in acid secretion were monitored and the curves analysed according to Black et. al., Br. J. Pharmacol., 1985, 86, 581.

SMILES	Ki (CCKB) [nM]	Kb (Gastrin) [nM]	other results
O=C(O)c1cc(NC(=O)[C@H](Cc2ccccc2)NC(=O)c2ccccc2C(=O)NCc2cccc3ccccc23)cc(C(=O)O)c1 [Example 5, (1R-(3,5-dicarboxyphenylaminocarbonyl)-2-phenylethylaminocarbonyl)-2-(1-naphthalenemethylaminocarbonyl)-benzene]	–	–	CCKB pKi (CCKB): 6.3; CCKA pKi (CCKA): 7.0
O=C(Cc1ccccc1C(=O)NCC12CC3CC(CC(C3)C1)C2)N[C@@H](Cc1ccccc1)C(=O)Nc1cc(C(=O)O)cc(C(=O)O)c1 [Example 8, (1S-(3,5-dicarboxyphenylaminocarbonyl)-2-phenylethylaminocarbonylmethyl)-2-(1-adamantanemethylamino-carbonyl)benzene]	158	–	Ki (CCKA): 3160 nM
O=C(Cc1ccccc1C(=O)N[C@@H](Cc1ccccc1)C(=O)Nc1cc(C(=O)O)cc(C(=O)O)c1)NCC12CC3CC(CC(C3)C1)C2 [Example 9, (1S-(3,5-dicarboxyphenylaminocarbonyl)-2-phenylethylaminocarbonyl)-2-(1-adamantanemethylaminocarbonyl-methyl)benzene]	251	–	Ki (CCKA): 3160 nM
COc1ccc(C(=O)N[C@@H](Cc2ccccc2)C(=O)Nc2cc(C(=O)O)cc(C(=O)O)c2)c(C(=O)NCC23CC4CC(CC(C4)C2)C3)c1 [Example 18, 1-(1S-(3,5-dicarboxyphenylamino-carbonyl)-2-phenylethylaminocarbonyl)-2-(1-adamantanemethyl-aminocarbonyl)-4-methoxybenzene]	25.1	31.6	–
O=C(O)c1cc(NC(=O)[C@H](Cc2ccccc2)NC(=O)c2c(F)ccc(F)c2C(=O)NCC23CC4CC(CC(C4)C2)C3)cc(C(=O)O)c1 [Example 22, 1-(1S-(3,5-dicarboxyphenylamino-carbonyl)-2-phenylethylaminocarbonyl)-2-(1-adamantanemethyl-aminocarbonyl)-3,6-difluorobenzene]	–	–	Gastrin pKB (Gastrin): 7.5; CCKB pKi (CCKB): 7.3
O=C(O)c1cc(NC(=O)[C@H](Cc2ccccc2)NC(=O)c2cc(O)ccc2C(=O)NCC23CC4CC(CC(C4)C2)C3)cc(C(=O)O)c1 [Example 23, 1-(1S-(3,5-dicarboxyphenylamino-carbonyl)-2-phenylethylaminocarbonyl)-2-(1-adamantanemethylamino-carbonyl)-5-hydroxybenzene]	316	126	–
CNc1ccc(C(=O)N[C@@H](Cc2ccccc2)C(=O)Nc2cc(C(=O)O)cc(C(=O)O)c2)c(C(=O)NCC23CC4CC(CC(C4)C2)C3)c1 [Example 24, 1-(1S-(3,5-dicarboxyphenylamino-carbonyl)-2-phenylethylaminocarbonyl)-2-(1-adamantanemethyl-aminocarbonyl)-4-methylaminobenzene]	7.94	5.01	–
CN(C)c1ccc(C(=O)N[C@@H](Cc2ccccc2)C(=O)Nc2cc(C(=O)O)cc(C(=O)O)c2)c(C(=O)NCC23CC4CC(CC(C4)C2)C3)c1 [Example 25, 1-(1S-(3,5-dicarboxyphenylamino-carbonyl)-2-phenylethylaminocarbonyl)-2-(l-adamantanemethyl-aminocarbonyl)-4-dimethylaminobenzene]	1.58	2.51	–
O=C(O)c1cc(NC(=O)[C@H](Cc2ccccc2)N2Cc3cccc(C(=O)NCC45CC6CC(CC(C6)C4)C5)c3C2=O)cc(C(=O)O)c1 [Example 27, 7-(1-adamantanemethylaminocarbonyl)-2-(1S-(3,5-dicarboxyphenylaminocarbonyl)-2-phenylethyl) indol-1-one]	126	–	Ki (CCKA): 3160 nM
COc1ccc(C(=O)N[C@@H](Cc2ccccc2F)C(=O)Nc2cc(C(=O)O)cc(C(=O)O)c2)c(C(=O)NCC23CC4CC(CC(C4)C2)C3)c1 [Example 28, 1-(1S-(3,5-dicarboxyphenylamino-carbonyl)-2-(2-fluorophenyl)ethylaminocarbonyl)-2-(1-adamantane-methylaminocarbonyl)-4-methoxybenzene]	15.8	12.6	–
COc1ccc(C(=O)NCC23CC4CC(CC(C4)C2)C3)c(C(=O)N[C@@H](Cc2ccccc2F)C(=O)Nc2cc(C(=O)O)cc(C(=O)O)c2)c1 [Example 29, 1-(1S-(3,5-dicarboxyphenylamino-carbonyl)-2-(2-fluorophenyl)ethylaminocarbonyl)-2-(1-adamantane-methylaminocarbonyl)-5-methoxybenzene]	15.8	1580	–
